Assay results as given in paper PMC7241567 (Journal of Enzyme Inhibition and Medicinal Chemistry, 2020).
Entries after “also recorded” stand apart in the source; their conditions may differ.

Key:
Format in all cases: biochemical
FLT3 = target: T1, FLT3 (Homo sapiens, UniProt P36888); experiment: Reaction Biology Kinase HotSpot radiometric kinase assay; conditions: for IC50: FLT3 wild type, read-out: IC50 against FLT3
T1 construct: purchased Reaction Biology Corp. (Kinase HotSpot service)
T1 sequence (P36888 27-993): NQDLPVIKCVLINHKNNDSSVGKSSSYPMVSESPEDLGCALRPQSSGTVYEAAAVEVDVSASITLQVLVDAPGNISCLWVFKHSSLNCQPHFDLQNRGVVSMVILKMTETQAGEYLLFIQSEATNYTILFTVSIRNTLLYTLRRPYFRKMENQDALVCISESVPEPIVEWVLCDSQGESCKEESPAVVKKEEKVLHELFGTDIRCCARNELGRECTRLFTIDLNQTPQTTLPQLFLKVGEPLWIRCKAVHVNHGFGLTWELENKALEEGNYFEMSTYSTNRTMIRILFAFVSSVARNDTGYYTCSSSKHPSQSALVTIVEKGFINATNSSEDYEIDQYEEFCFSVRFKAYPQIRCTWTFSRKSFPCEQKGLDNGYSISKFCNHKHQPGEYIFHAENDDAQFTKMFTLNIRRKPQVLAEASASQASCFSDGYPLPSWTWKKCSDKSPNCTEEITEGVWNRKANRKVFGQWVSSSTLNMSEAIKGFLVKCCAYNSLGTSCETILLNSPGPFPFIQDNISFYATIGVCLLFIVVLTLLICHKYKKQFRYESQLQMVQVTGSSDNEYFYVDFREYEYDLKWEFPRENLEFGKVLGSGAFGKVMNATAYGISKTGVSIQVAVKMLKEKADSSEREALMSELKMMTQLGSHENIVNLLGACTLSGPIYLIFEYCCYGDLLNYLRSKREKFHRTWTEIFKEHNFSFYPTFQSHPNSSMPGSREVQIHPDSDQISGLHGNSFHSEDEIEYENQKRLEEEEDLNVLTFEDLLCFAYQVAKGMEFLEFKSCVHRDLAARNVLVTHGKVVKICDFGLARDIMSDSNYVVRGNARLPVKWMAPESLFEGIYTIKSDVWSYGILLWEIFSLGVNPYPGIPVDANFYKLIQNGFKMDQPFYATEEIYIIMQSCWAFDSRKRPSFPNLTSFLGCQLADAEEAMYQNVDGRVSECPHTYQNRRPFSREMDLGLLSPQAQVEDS

RIPK3 = target: T2, RIPK3 (Homo sapiens, UniProt Q9Y572); experiment: as above; conditions: read-out: GW5074 IC50, control compound, footnote a: data for GW5074
T2 construct: purchased Reaction Biology Corp. (Kinase HotSpot service)

[1] = system: other kinases including FMS and cKit; experiment: Kinase panel screening, overall selectivity; conditions: 36 different kinases, single dose of 10 µM
Protocol: Next, we investigated kinase panel screening of 7d and 7b over 36 different kinases at a single dose of 10 µM (Figure 5). […] High selectivity over cKit might be an opportunity to avoid myelosuppression toxicity, which was reported from a dual FLT3/cKit inhibitor[19–22]. It is a valuable result to secure such a kinase selectivity profile considering the similarities of the same type III receptor tyrosine kinase (FMS, cKit and FLT3).
3. Evaluation of IC50 and Selected Kinase Profiling
We used Reaction Biology Corp. Kinase HotSpotSM service (www.reactionbiology.com) for IC50 determination of all compounds and kinase profile. Assay protocol: In a final reaction volume of 25 μL, Peptide substrate, [[…]], 5 µM, ATP 10 µM, FLT3(h) (5-10 […]
mU) is incubated with 25 mM Tris pH 7.5, 0.02 mM EGTA, 0.66 mg/mL myelin basic protein, 10 mM Mg Acetate and [γ-33P-ATP] (specific activity approx. 500 cpm/pmol, concentration as required). The reaction is initiated by the addition of the Mg-ATP mix. After incubation for 40 minutes at room temperature, the reaction is stopped by the addition of 5 μL of a 3% phosphoric acid solution. 10 μL of the reaction is then spotted onto a P30 filtermat and washed three times for 5 minutes in 75 mM phosphoric acid and once in methanol prior to drying and […]

ERK1 = target: T3, ERK1 (Homo sapiens, UniProt P27361); experiment: Reaction Biology Kinase HotSpot radiometric kinase assay; conditions: control compound, footnote b: data for SCH772984
T3 construct: purchased Reaction Biology Corp. (Kinase HotSpot service)
T3 sequence (P27361 whole entry): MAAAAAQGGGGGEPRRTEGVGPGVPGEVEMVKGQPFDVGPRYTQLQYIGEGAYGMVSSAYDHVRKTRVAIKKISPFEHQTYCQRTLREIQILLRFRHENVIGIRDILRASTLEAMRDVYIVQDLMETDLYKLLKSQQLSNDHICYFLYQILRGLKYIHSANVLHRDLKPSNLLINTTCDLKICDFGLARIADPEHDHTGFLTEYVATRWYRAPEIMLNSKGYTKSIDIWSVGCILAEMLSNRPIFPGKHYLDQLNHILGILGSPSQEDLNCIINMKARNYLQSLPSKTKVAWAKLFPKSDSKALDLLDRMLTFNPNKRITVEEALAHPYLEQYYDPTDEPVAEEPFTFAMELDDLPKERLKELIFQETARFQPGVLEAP

T2 sequence (Q9Y572 whole entry): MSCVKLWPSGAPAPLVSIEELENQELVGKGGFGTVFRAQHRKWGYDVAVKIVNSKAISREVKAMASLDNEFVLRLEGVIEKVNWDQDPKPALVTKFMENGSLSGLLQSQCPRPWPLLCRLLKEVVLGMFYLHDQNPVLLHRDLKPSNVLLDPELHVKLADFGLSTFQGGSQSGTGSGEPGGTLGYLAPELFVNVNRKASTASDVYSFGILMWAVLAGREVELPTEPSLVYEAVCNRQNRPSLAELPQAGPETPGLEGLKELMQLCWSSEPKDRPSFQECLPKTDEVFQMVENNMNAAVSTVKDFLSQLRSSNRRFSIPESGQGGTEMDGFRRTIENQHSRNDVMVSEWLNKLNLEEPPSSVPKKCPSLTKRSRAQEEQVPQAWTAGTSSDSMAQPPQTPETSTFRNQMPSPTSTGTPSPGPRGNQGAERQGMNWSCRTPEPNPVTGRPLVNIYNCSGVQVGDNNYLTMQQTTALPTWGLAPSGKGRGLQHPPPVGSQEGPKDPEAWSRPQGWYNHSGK

SMILES | IC50 (FLT3) | inhibitory activity towards FLT3 (in words) (FLT3) | further results
CC(=O)N1CCC(c2ncc3ccc(NC(=O)c4cnoc4C)cc3n2)CC1 [Compound 7o] | – | did not show inhibitory activity towards FLT3 or were very weak | –
CCN1CCN(Cc2cc(-c3ncc4ccc(NC(=O)c5cnoc5C)cc4n3)cc(C(F)(F)F)c2)CC1 [Compound 7e] | – | maintained the activity; also recorded: maintained inhibitory activity | decrease of activity towards FLT3 relative to 7d (FLT3; compared with 7d): about 10 fold
Cc1oncc1C(=O)Nc1ccc2cnc(-c3cc(C(C)(C)C)on3)nc2c1 [Compound 7l] | – | did not show inhibitory activity towards FLT3 or were very weak | –
O=C1Nc2ccc(I)cc2/C1=C/c1cc(Br)c(O)c(Br)c1 [GW5074, reference compound] | – | – | IC50 (RIPK3): 1.65 µM
Cc1oncc1C(=O)Nc1ccc2cnc(-c3cnn(-c4ccccc4)c3C(F)(F)F)nc2c1 [Compound 7h] | – | loss of activity | –
Cc1oncc1C(=O)Nc1ccc2cnc(-c3ccncc3)nc2c1 [Compound 7p] | – | did not show inhibitory activity towards FLT3 or were very weak | –
Cc1oncc1C(=O)Nc1ccc2cnc(-c3ccc4[nH]ncc4c3)nc2c1 [Compound 7m] | 0.79 µM | maintained inhibitory activity | –
Cc1oncc1C(=O)Nc1ccc2cnc(-c3cc(N4CCOCC4)cc(C(F)(F)F)c3)nc2c1 [Compound 7b] | 3.98 µM | maintained the activity; also recorded: maintained inhibitory activity | activity on other kinases in panel (in words) [1]: almost no activity
Cc1oncc1C(=O)Nc1ccc2cnc(-c3ccccn3)nc2c1 [Compound 7q] | – | did not show inhibitory activity towards FLT3 or were very weak | –
Cc1cn(-c2cc(-c3ncc4ccc(NC(=O)c5cnoc5C)cc4n3)cc(C(F)(F)F)c2)cn1 [Compound 7c] | 1.58 µM | maintained the activity; also recorded: maintained inhibitory activity | –
O=C(Nc1ccc2[nH]nc(-c3ccncc3)c2c1)[C@@H]1CCN(CC(=O)N2CCN(c3ccc(-c4ncccn4)cc3)CC2)C1 [SCH772984, reference compound] | – | – | IC50 (ERK1): 0.00447 µM

Second part, led by results:

IC50 (FLT3) | SMILES | inhibitory activity towards FLT3 (in words) (FLT3) | further results
4.7 µM | COc1ccc(/C=C/c2ncc3ccc(NC(=O)c4cnoc4C)cc3n2)cc1 [Compound 7j] | maintained inhibitory activity | –
3.59 µM | Cc1oncc1C(=O)Nc1ccc2cnc(-c3cc(OC4CCN(C)CC4)cc(C(F)(F)F)c3)nc2c1 [Compound 7n] | maintained the activity; also recorded: maintained inhibitory activity | –
